Results published in article PMC7697705, “Design, Synthesis and Biological Evaluation of (2′,5′ and 3′5′-Linked) cGAMP Analogs that Activate Stimulator of Interferon Genes (STING)” (Molecules, 2020).
Read-outs that look alike come from different tables or passages of the source.

What was measured:
human STING = biological target: T1, human STING (Homo sapiens, UniProt Q86WV6); experiment: surface plasmon resonance (SPR)-based hSTING binding assay; conditions: for kon: read-out: Ka; for Kd: KD = Kd/Ka
T1 construct: N-terminal cysteine (thiol coupling handle)
T1 sequence (Q86WV6 whole entry): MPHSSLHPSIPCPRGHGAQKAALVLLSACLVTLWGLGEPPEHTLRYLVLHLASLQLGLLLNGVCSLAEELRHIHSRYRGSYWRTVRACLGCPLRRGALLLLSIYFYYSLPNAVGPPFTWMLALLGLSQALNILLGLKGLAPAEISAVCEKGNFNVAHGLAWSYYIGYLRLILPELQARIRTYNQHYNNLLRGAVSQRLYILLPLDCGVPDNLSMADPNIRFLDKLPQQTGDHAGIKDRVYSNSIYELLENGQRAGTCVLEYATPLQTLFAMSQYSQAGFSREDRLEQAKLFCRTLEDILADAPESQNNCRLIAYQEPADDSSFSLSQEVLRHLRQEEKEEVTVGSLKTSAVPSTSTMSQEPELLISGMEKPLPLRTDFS
Description: Direct measurement of affinity constants provide assistance in pharmacokinetic and pharmacodynamic studies. In this study, we evaluated the binding affinities between human STING and the synthesized CNDs by the surface plasmon resonance (SPR)-based assay, which loaded minuscule amounts of STING protein on a biosensor chip, and free-labeled samples were directly detected in short measurement times.
hSTING was firstly immobilized on a CM5 sensor chip via a N-terminal cysteine thiol group, without altering conformation or binding activity. […] Kinetic parameters generally give both an aggregation constant (ka) and a disaggregation constant (kd), from which the equilibrium dissociation constant KD can be calculated by KD = Kd/Ka.
SPR system was primed using the manufacturer’s HEPES-buffered saline at 25 °C. CM5 chips were warmed to room temperature on the bench before being added to the system. SPR surfaces were cleaned and conditioned (separate injections of 50 mM NaOH, 1 M NaCl, 0.1% SDS and 10 mM HCl, each for 60 s at 10 μL/min) prior to normalization using the manufacturer’s 70% glycerol solution (GE Healthcare). STING was prepared at 100 μg/mL in SPR running buffer with no DMSO and injected twice onto channel 2 for 600 s at 5 μL/min.
Cyclic dinucleotides were prepared to 1-mM stocks in SPR running buffer. A 12-concentrations dilution series, including a blank containing no substrate, were made and diluted in a 96-well polypropylene Greiner plate. Plates were spun and then placed at 4 °C until experimentation. Experiments were performed at 60 μL/min with data collected every 0.1s.

THP-1 cells = experiment: IFN-β production in THP-1 cells by ELISA; conditions: 1 μM, 18 h
Description: The IFN-β levels in the cell culture supernatants were measured using the ELISA kits (Meimian Biotechnology, Jiangsu, China), according to the manufacturer’s instructions.

[1] = SPR, hSTING immobilized on CM5 chip, 25 °C

SMILES	dissociation rate constant koff (human STING; [1])	kon (human STING; [1])	Kd (human STING; SPR)	kon (human STING)	production of IFN-β (ELISA) (THP-1 cells)
Cc1cn([C@@H]2O[C@@H]3COP(=O)(O)O[C@@H]4[C@H](O)[C@@H](COP(=O)(O)O[C@H]3[C@H]2O)O[C@H]4n2cnc3c(=O)[nH]c(N)nc32)c(=O)[nH]c1=O [Compound 8a, 2′,3′-cyclic-guanosine-5-methyluridine]	0.002649 s⁻¹	349 M⁻¹ s⁻¹	7.58 µM		
Cc1cn([C@@H]2O[C@@H]3COP(O)(=S)O[C@@H]4[C@H](O)[C@@H](COP(O)(=S)O[C@H]3[C@H]2O)O[C@H]4n2cnc3c(=O)[nH]c(N)nc32)c(=O)[nH]c1=O (stereo partly shown) [Compound 8b, 2′,3′-cyclic-guanosine(PS)-5-methyluridine(PS)]	0.0001339 s⁻¹			233 M⁻¹ s⁻¹	more IFN-β than the corresponding phosphodiester analogs
Cc1cn(C2OC3COP(=O)(O)OC4C(O)C(COP(=O)(O)OC3C2O)OC4n2cnc3c(=O)[nH]c(N)nc32)c(=O)nc1N (stereo not shown) [Compound 8c, 2′,3′-cyclic-guanosine-5-methylcytidine]	1.397e-05 s⁻¹	152 M⁻¹ s⁻¹	0.092 µM		
Cc1cn([C@@H]2O[C@@H]3COP(=O)(O)O[C@H]4[C@@H](O)[C@H](n5cnc6c(N)ncnc65)O[C@@H]4COP(=O)(O)O[C@@H]2[C@@H]3O)c(=O)[nH]c1=O [Compound 12a, 2′,3′-cyclic-5-methyluridine-adenosine]	0.002431 s⁻¹	208 M⁻¹ s⁻¹	11.7 µM		
Cc1cn([C@@H]2O[C@@H]3COP(O)(=S)O[C@H]4[C@@H](O)[C@H](n5cnc6c(N)ncnc65)O[C@@H]4COP(O)(=S)O[C@@H]2[C@@H]3O)c(=O)[nH]c1=O (stereo partly shown) [Compound 12b, 2′,3′-cyclic-5-methyluridine(PS)-adenosine(PS)]	0.0009865 s⁻¹	289 M⁻¹ s⁻¹	3.41 µM		more IFN-β than the corresponding phosphodiester analogs
Cc1cn([C@@H]2O[C@@H]3COP(=O)(O)O[C@H]4[C@@H](O)[C@H](n5cnc6c(N)ncnc65)O[C@@H]4COP(=O)(O)O[C@@H]2[C@@H]3O)c(=O)nc1N [Compound 12c, 2′,3′-cyclic-5-methylcytidine-adenosine]	0.0007331 s⁻¹	198 M⁻¹ s⁻¹	3.7 µM		
